Measurements published in DBAASP.
≈ marks a conversion by molar mass, not a printed value.

Tests used:
Test in all cases: ≥ marks a high value that may be exact or a test limit, other limits are often not marked, values filed in µg/mL are converted to µM
[1] = test system: Pseudomonas aeruginosa PA330
[2] = test system: Staphylococcus epidermidis C621
[3] = test system: Corynebacterium xerosis C875
[4] = test system: Staphylococcus aureus ATCC 25923
Escherichia coli DC2 = test system: Escherichia coli DC2
[5] = test system: Pseudomonas aeruginosa PA214
[6] = test system: Enterococcus faecalis ATCC 29212
Escherichia coli BL21 = test system: Escherichia coli BL21
[7] = test system: Pseudomonas aeruginosa PAO1
[8] = test system: Bacillus subtilis ATCC 6633
[9] = test system: Escherichia coli ATCC 25922
Escherichia coli K-12 = test system: Escherichia coli K-12
[10] = test system: Pseudomonas aeruginosa ATCC 27853
Escherichia coli UB1005 = test system: Escherichia coli UB1005
[11] = test system: Salmonella typhimurium CCARM 8009
[12] = test system: Campylobacter jejuni KCTC 5327
[13] = test system: Streptococcus suis KCTC 3557
[14] = test system: Salmonella enterica subsp. enterica serovar Typhimurium ATCC 14028
[15] = test system: Salmonella typhimurium CCARM 8013
[16] = test system: Listeria monocytogenes KCTC 3710
[17] = test system: Listeria monocytogenes KCCM 43155
[18] = test system: Listeria monocytogenes KCCM 40307
[19] = test system: Bacillus subtilis ATCC 9372
[20] = test system: Staphylococcus aureus ATCC 6538
[21] = test system: Escherichia coli ATCC 8739
[22] = test system: Pseudomonas aeruginosa ATCC 9027
[23] = test system: Proteus vulgaris NCTC 4635
[24] = test system: Acinetobacter baumannii 7226/16
[25] = test system: Staphylococcus aureus 1399/17
Escherichia coli ML-35p = test system: Escherichia coli ML-35p
[26] = test system: Staphylococcus aureus SG511
[27] = test system: Staphylococcus aureus ATCC 33591
[28] = test system: Pseudomonas aeruginosa 522/17
[29] = test system: Escherichia coli ESBL 521/17
[30] = test system: Klebsiella pneumoniae ESBL 344/17
Shigella dysenteriae = test system: Shigella dysenteriae
Escherichia coli 37 = test system: Escherichia coli 37
Staphylococcus aureus 10 = test system: Staphylococcus aureus 10
[31] = test system: Candida albicans ATCC 2002
[32] = test system: Enterobacter cloacae ATCC 13047
[33] = test system: Pseudomonas aeruginosa CMCCB 1010
Pseudomonas aeruginosa = test system: Pseudomonas aeruginosa
Klebsiella pneumoniae = test system: Klebsiella pneumoniae
[34] = test system: Klebsiella pneumoniae ATCC 700603
[35] = test system: Staphylococcus aureus ATCC 29313
[36] = test system: Xanthomonas axonopodis pv. citri

`C[C@H](NC(=O)[C@H](C)NC(=O)[C@H](Cc1ccccc1)NC(=O)[C@H](C)NC(=O)[C@H](C)NC(=O)[C@H](Cc1c[nH]c2ccccc12)NC(=O)[C@H](C)NC(=O)[C@H](C)NC(=O)[C@H](Cc1ccccc1)NC(=O)[C@H](C)NC(=O)[C@H](C)NC(=O)[C@H](CCCCN)NC(=O)[C@H](CCCCN)NC(=O)[C@H](CCCCN)NC(=O)[C@H](CCCCN)NC(=O)[C@H](CCCCN)NC(=O)[C@@H](N)CCCCN)C(N)=O` [KKKKKKAAFAAWAAFAA] showed an MIC [1] of 17.7 µM (≈ 32.4 µg/mL), an MIC [2] of 4 µM (≈ 7.34 µg/mL) and an MIC [3] of 0.5 µM (≈ 0.918 µg/mL). The MIC [4] was over 32 µM, the MIC (Escherichia coli DC2) was 0.5 µM (≈ 0.918 µg/mL) and the MIC [5] was 3.1 µM (≈ 5.69 µg/mL). For the same molecule, the MIC [6] was over 32 µM, the MIC (Escherichia coli BL21) was 1.6 µM (≈ 2.94 µg/mL) and the MIC [7] was 12.5 µM (≈ 22.9 µg/mL). It also gave an MIC [8] of 8 µM (≈ 14.7 µg/mL), an MIC [9] of 8 µM (≈ 14.7 µg/mL) and an MIC (Escherichia coli K-12) of 1.6 µM (≈ 2.94 µg/mL). For the same molecule, the MIC [10] was 16 µM (≈ 29.4 µg/mL) and the MIC (Escherichia coli UB1005) was 1 µM (≈ 1.84 µg/mL).
With `CC(C)C[C@H](NC(=O)[C@H](CO)NC(=O)[C@H](CC(C)C)NC(=O)[C@H](CC(C)C)NC(=O)[C@H](CO)NC(=O)CNC(=O)[C@H](Cc1ccccc1)NC(=O)[C@@H](N)Cc1ccccc1)C(=O)NCC(=O)N[C@@H](CO)C(=O)N[C@@H](CCCCN)C(=O)N[C@@H](CC(C)C)C(=O)N[C@@H](CC(C)C)C(=O)N1CCC[C@H]1C(=O)N[C@@H](CO)C(=O)N[C@H](C(=O)N[C@@H](Cc1ccccc1)C(=O)N[C@@H](CCCCN)C(=O)N[C@@H](CC(C)C)C(=O)N[C@@H](Cc1ccccc1)C(=O)N[C@@H](CCC(N)=O)C(=O)N[C@@H](CCCN=C(N)N)C(=O)N[C@@H](CCCCN)C(=O)N[C@@H](CCCCN)C(=O)N[C@@H](CCC(=O)O)C(N)=O)C(C)C` [FFGSLLSLGSKLLPSVFKLFQRKKE] the MIC [11] was 4 µM (≈ 11.5 µg/mL), the MIC [12] was 2 µM (≈ 5.74 µg/mL) and the MIC [13] was 2 µM (≈ 5.74 µg/mL). For the same molecule, the MIC [14] was 4 µM (≈ 11.5 µg/mL), the MIC [15] was 4 µM (≈ 11.5 µg/mL) and the MIC [16] was 2 µM (≈ 5.74 µg/mL). For the same molecule, the MIC [17] was 2 µM (≈ 5.74 µg/mL) and the MIC [18] was 2 µM (≈ 5.74 µg/mL).
Molecule `CC[C@H](C)[C@H](NC(=O)[C@@H](NC(=O)[C@H](C)NC(=O)[C@H](Cc1ccccc1)NC(=O)[C@H](CC(C)C)NC(=O)CN)C(C)C)C(=O)N[C@@H](CCCCN)C(=O)N[C@@H](CCCCN)C(=O)N[C@H](C(=O)N[C@@H](C)C(=O)N[C@@H](CO)C(=O)N[C@H](C(=O)O)C(C)C)C(C)C` [GLFAVIKKVASV] has an MIC [19] of at least 52 µM, an MIC [20] of 208 µM (≈ 256 µg/mL) and an MIC [21] of at least 104 µM. For the same molecule, the MIC [22] was 208 µM (≈ 256 µg/mL) and the MIC [23] was at least 416 µM.
Work on `CC[C@H](C)[C@H](NC(=O)[C@H](CCCN=C(N)N)NC(=O)[C@@H](NC(=O)[C@@H]1CCCN1C(=O)[C@@H]1CCCN1C(=O)[C@H](CCCN=C(N)N)NC(=O)[C@H](CCCN=C(N)N)NC(=O)[C@H](Cc1ccccc1)NC(=O)[C@@H]1CCCN1C(=O)[C@H](CC(C)C)NC(=O)[C@H](CCCN=C(N)N)NC(=O)[C@H](Cc1ccccc1)NC(=O)[C@@H](N)CCCN=C(N)N)[C@@H](C)CC)C(=O)N[C@@H](Cc1cnc[nH]1)C(=O)N1CCC[C@H]1C(=O)N1CCC[C@H]1C(=O)N1CCC[C@H]1C(=O)N[C@@H](Cc1ccccc1)C(=O)N[C@@H](Cc1ccc(O)cc1)C(=O)N1CCC[C@H]1C(=O)N1CCC[C@H]1C(=O)N[C@@H](Cc1ccccc1)C(=O)N[C@@H](CCCN=C(N)N)C(=O)N[C@@H](CCCN=C(N)N)C(=O)N[C@@H](Cc1ccccc1)C(=O)N[C@@H](CC(C)C)C(=O)O` [RFRLPFRRPPIRIHPPPFYPPFRRFL] yielded an MIC [24] of 5.66 µM (≈ 19.1 µg/mL), an MIC [25] of 11.3 µM (≈ 38.2 µg/mL) and an MIC (Escherichia coli ML-35p) of 2 µM (≈ 6.75 µg/mL). It also gave an MIC [26] of 0.5 µM (≈ 1.69 µg/mL), an MIC [27] of at least 32 µM and an MIC [28] of at least 32 µM. The MIC [29] was 4 µM (≈ 13.5 µg/mL) and the MIC [30] was 5.66 µM (≈ 19.1 µg/mL).
With `CC[C@H](C)[C@H](NC(=O)[C@H](CC(C)C)NC(=O)[C@H](CC(C)C)NC(=O)[C@H](CCCCN)NC(=O)[C@H](C)NC(=O)[C@H](CC(C)C)NC(=O)[C@H](CCCCN)NC(=O)[C@@H](NC(=O)[C@H](C)NC(=O)CNC(=O)[C@H](CCSC)NC(=O)[C@H](CO)NC(=O)[C@@H](N)CC(=O)O)C(C)C)C(=O)N[C@@H](CC(=O)O)C(=O)N[C@@H](CCCCN)C(=O)N[C@@H](CCSC)C(=O)N[C@@H](CCCCN)C(=O)N[C@H]1CSSC[C@@H](C(=O)O)NC(=O)[C@H](C)NC(=O)[C@H](CCCCN)NC(=O)[C@H]([C@@H](C)O)NC(=O)[C@H](C(C)C)NC(=O)[C@H](CCC(=O)O)NC1=O` [DSMGAVKLAKLLIDKMKCEVTKAC] the MIC [4] was 17 µM (≈ 44.1 µg/mL), the MIC (Shigella dysenteriae) was at least 40 µM and the MIC (Escherichia coli 37) was at least 60 µM. For the same molecule, the MIC (Staphylococcus aureus 10) was at least 40 µM, the MIC [6] was 60 µM (≈ 156 µg/mL) and the MIC [31] was at least 60 µM. For the same molecule, the MIC [32] was at least 40 µM, the MIC [9] was 10 µM (≈ 25.9 µg/mL) and the MIC [33] was 17 µM (≈ 44.1 µg/mL). The MIC (Pseudomonas aeruginosa) was 23 µM (≈ 59.7 µg/mL), the MIC (Klebsiella pneumoniae) was 30 µM (≈ 77.8 µg/mL) and the MIC [34] was 15 µM (≈ 38.9 µg/mL). The MIC [10] was 23 µM (≈ 59.7 µg/mL).
With `CC(C)C[C@H](NC(=O)[C@H](C)NC(=O)[C@@H](NC(=O)[C@@H](N)CCCCN)C(C)C)C(=O)NCC(=O)N[C@H](C(=O)N[C@@H](C)C(=O)N[C@@H](CCC(N)=O)C(=O)N[C@@H](CC(N)=O)C(=O)N[C@@H](Cc1ccc(O)cc1)C(=O)N[C@@H](CC(C)C)C(=O)N[C@@H](CC(N)=O)C(=O)N1CCC[C@H]1C(=O)N[C@@H](CCC(N)=O)C(=O)N[C@@H](CCC(N)=O)C(=O)O)C(C)C` [KVALGVAQNYLNPQQ] the MIC [35] was at least 156 µM, the MIC [9] was over 156 µM and the MIC [36] was at least 156 µM. For the same molecule, the MIC [10] was over 156 µM.
